Molecules are shown by their SMILES.

Sequence of PIK3CA (human) (P42336 whole entry, looked up): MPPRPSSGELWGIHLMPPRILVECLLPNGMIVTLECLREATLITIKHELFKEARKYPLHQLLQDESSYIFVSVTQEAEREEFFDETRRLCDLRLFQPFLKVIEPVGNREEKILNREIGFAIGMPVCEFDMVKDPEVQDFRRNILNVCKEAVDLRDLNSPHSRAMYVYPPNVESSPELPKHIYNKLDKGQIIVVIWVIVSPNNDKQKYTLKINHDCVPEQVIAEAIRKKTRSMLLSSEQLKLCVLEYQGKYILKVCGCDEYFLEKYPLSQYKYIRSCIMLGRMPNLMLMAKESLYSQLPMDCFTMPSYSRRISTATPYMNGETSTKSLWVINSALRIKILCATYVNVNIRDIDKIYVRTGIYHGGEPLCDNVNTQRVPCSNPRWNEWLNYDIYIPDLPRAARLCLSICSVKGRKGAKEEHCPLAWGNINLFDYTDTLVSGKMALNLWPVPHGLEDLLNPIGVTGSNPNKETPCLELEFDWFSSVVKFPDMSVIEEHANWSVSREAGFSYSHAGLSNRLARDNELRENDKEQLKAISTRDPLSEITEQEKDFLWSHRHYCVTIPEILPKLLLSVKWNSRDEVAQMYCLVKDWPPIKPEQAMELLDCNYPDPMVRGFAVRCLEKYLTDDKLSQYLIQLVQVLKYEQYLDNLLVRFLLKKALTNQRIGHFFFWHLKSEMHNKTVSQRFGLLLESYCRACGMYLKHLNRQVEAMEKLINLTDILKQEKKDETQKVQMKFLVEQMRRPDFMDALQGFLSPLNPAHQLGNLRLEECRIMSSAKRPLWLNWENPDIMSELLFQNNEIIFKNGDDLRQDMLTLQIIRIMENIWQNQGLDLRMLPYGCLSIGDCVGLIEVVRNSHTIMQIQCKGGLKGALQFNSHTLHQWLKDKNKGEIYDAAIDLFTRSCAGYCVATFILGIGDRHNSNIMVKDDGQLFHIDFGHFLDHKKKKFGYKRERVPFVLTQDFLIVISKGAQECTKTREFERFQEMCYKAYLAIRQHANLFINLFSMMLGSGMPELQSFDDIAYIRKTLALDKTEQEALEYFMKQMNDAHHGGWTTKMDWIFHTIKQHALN

The first assay deals with CDK2 (UniProt P24941). The experiment in a line: Enzyme Assay.
Details: not given
With `N[C@H](COc1cncc(-c2ccc3[nH]ncc3c2)c1)Cc1c[nH]c2ccccc12`, the IC50 (usually the concentration at which inhibition is half-maximal) came to 63 nM and the Ki – broadly, a dissociation constant, usually derived from enzyme kinetics or from competition with a known ligand – came to 42 nM.
`N[C@H](COc1cncc(-c2cc3cn[nH]c3cn2)c1)Cc1c[nH]c2ccccc12` yielded an IC50 of 6 nM.

Another assay addresses PIK3CA (human) (UniProt P42336). The experiment in a line: Enzyme Assay.
Details: not given
The molecule `O=c1cc(NCc2ccccc2)nc(N2CCOCC2)[nH]1` showed an IC50 of 142000 nM.

The target of another assay is PIK3CB (Human) (UniProt P42338). Kind of assay: Enzyme Assay.
Sequence of PIK3CB (Human) (P42338 whole entry, looked up): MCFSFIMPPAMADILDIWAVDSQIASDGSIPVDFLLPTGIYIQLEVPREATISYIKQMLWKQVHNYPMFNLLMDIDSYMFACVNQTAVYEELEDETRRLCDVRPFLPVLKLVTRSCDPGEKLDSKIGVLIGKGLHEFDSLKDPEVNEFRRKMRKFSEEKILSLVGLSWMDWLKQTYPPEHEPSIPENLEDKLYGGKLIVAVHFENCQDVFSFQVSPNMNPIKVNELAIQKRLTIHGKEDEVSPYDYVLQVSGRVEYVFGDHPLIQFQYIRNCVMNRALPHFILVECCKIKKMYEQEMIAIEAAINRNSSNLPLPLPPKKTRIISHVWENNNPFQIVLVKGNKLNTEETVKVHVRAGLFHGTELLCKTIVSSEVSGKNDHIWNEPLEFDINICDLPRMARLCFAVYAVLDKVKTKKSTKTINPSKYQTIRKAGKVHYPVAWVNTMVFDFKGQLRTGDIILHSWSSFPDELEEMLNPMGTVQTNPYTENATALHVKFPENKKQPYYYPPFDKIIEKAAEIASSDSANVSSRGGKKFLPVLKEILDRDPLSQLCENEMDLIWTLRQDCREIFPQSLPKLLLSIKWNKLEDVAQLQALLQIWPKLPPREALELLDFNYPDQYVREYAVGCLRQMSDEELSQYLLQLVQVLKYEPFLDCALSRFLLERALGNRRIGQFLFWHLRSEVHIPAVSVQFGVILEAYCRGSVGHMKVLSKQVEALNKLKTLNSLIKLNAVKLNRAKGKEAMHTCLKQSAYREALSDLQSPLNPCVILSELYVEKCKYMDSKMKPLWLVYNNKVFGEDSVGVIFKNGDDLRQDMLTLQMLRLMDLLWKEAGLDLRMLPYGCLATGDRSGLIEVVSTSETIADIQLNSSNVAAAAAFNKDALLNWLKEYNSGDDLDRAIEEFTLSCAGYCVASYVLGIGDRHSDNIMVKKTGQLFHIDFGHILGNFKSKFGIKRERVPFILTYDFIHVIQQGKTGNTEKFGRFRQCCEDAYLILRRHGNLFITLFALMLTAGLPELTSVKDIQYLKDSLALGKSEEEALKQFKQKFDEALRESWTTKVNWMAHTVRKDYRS
Details: not given
`CC[C@H](Nc1ncnc(N)c1-c1nnc(C)o1)c1cc2cccc(Cl)c2c(=O)n1-c1ccccc1` registered an IC50 of 359 nM.
On the same count and under the same terms, for `O=c1cc(NCc2ccccc2)nc(N2CCOCC2)[nH]1` the value was 34000 nM.

The next assay deals with MAPK14 (UniProt Q16539). The experiment in a line: Inhibition of MAPK Kinase Activity.
Sequence of MAPK14 (Q16539 whole entry, looked up): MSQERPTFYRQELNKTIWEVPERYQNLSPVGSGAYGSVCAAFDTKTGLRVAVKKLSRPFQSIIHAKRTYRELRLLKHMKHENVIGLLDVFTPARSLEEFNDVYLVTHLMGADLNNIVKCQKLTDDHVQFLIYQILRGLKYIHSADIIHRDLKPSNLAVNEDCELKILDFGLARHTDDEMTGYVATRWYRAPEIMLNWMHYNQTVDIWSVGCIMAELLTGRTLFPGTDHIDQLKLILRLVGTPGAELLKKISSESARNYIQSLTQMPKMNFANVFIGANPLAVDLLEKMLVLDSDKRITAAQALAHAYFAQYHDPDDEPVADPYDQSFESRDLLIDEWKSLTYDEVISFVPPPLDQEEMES
Details: not given
Molecule `OCCCCNc1cncc(-c2cncc(Nc3cccc(Cl)c3)n2)c1` came in with an IC50 of over 10000 nM.
Still for that read-out and setting: for `Clc1cccc(Nc2cncc(-c3cncc(NCCCn4cncn4)c3)n2)c1` the value was over 10000 nM.
Still for that read-out and setting: for `CN(C)CCNc1cncc(-c2cncc(Nc3cccc(Cl)c3)n2)c1` the value was over 10000 nM; for `Clc1cccc(Nc2cncc(-c3cncc(NCCCc4cccnc4)c3)n2)c1`, over 10000 nM.
Still for that read-out and setting: for `OCCCNc1cncc(-c2cncc(Nc3cccc(Cl)c3)n2)c1` the value was over 10000 nM; for `Clc1cccc(Nc2cncc(-c3cncc(NCCCn4cccn4)c3)n2)c1`, over 10000 nM.
For `N[C@H](COc1cncc(-c2ccc3[nH]ncc3c2)c1)Cc1c[nH]c2ccccc12`, the IC50 is 12200 nM.
The same measure, in the same setting: as for `N[C@H](COc1cncc(-c2cc3cn[nH]c3cn2)c1)Cc1c[nH]c2ccccc12`, the figure is 750 nM.

Another assay concerns the target EGFR (UniProt P00533).
Test: not given
Details: not given
The molecule `C[C@@](Cc1cc(O)c(O)c(SC[C@H](NC(=O)CC[C@H](N)C(=O)O)C(=O)NCC(=O)O)c1)(NC(=O)CCN)C(=O)O` came in with an inhibition of 5.2.
On the same count and under the same terms, for `NCCC(=O)N[C@H](Cc1cc(O)c(O)c(SC[C@H](NC(=O)CC[C@H](N)C(=O)O)C(=O)NCC(=O)O)c1)C(=O)O` the value was 8.2; for `N[C@@H](CCC(=O)N[C@@H](CSc1cc(C[C@H](N)C(=O)O)cc(O)c1O)C(=O)NCC(=O)O)C(=O)O`, 4.4; for `NCCc1cc(SC[C@H](NC(=O)CC[C@H](N)C(=O)O)C(=O)NCC(=O)O)c(O)c(O)c1SC[C@H](NC(=O)CC[C@H](N)C(=O)O)C(=O)NCC(=O)O`, 7.6.
On the same count and under the same terms, for `NCCC(=O)NCCc1cc(O)c(O)c(SC[C@H](NC(=O)CC[C@H](N)C(=O)O)C(=O)NCC(=O)O)c1` the value was 4.9; for `NCCC(=O)N[C@@H](Cc1cc(O)c(O)c(SC[C@H](N)C(=O)O)c1)C(=O)O`, 2.5.
On the same count and under the same terms, as for `NCCc1cc(O)c(O)c(SC[C@H](NC(=O)CC[C@H](N)C(=O)O)C(=O)NCC(=O)O)c1`, the figure is 1.
With `NCCC(=O)N[C@@H](Cc1cc(O)c(O)c(SC[C@H](NC(=O)CC[C@H](N)C(=O)O)C(=O)NCC(=O)O)c1)C(=O)O`, the inhibition came to 2.2.
As to `N[C@@H](CSc1cc(C[C@H](N)C(=O)O)cc(O)c1O)C(=O)O`, the inhibition amounted to 2.9.

A further assay addresses EGFR (UniProt P00533).
Test: not given
Details: not given
This is another data set of the same source.
In the case of `CC1=CCC[C@H]2[C@](C)(CC3=C(O)C(=O)C=C(N[C@@H](C(=O)O)[C@@H](C)O)C3=O)[C@@H](C)CC[C@]12C`, the IC50 is over 400000 nM.
Still for that read-out and setting: as for `CC1=CCC[C@H]2[C@](C)(CC3=C(N[C@H](C(=O)O)[C@@H](C)O)C(=O)C=C(N[C@H](C(=O)O)[C@@H](C)O)C3=O)[C@@H](C)CC[C@]12C`, the figure is 200000 nM; as for `CC1=CCC[C@H]2[C@](C)(CC3=C(O)C(=O)C=C(N[C@@H](CO)C(=O)O)C3=O)[C@@H](C)CC[C@]12C`, 170000 nM; as for `CC1=CCC[C@H]2[C@](C)(CC3=C(O)C(=O)C=C(NCC(=O)O)C3=O)[C@@H](C)CC[C@]12C`, over 400000 nM.
On the same count and under the same terms, for `CC1=CCC[C@H]2[C@](C)(CC3=C(O)C(=O)C=C(N[C@@H](C(=O)O)C(C)C)C3=O)[C@@H](C)CC[C@]12C` the value was 200000 nM.
Same read-out and setting: for `CC1=CCC[C@H]2[C@](C)(CC3=C(O)C(=O)C=C(N[C@H](C(=O)O)[C@@H](C)O)C3=O)[C@@H](C)CC[C@]12C` the value was over 400000 nM.

A further assay concerns the target EGFR (human) (UniProt P00533).
Test: not given
Details: not given
Turning to `CCN(CC)Cc1cc(NC(=O)/C(=C2/C(=O)Nc3ccccc32)c2[nH]c(C)cc2C)ccc1O`, the IC50 was over 100000 nM.
The same measure, in the same setting: for `Cc1cc(C)c(/C(C(=O)Nc2cccc(N(C)C)c2)=C2\C(=O)Nc3ccccc32)[nH]1` the value was over 100000 nM; for `Cc1cc(C)c(/C(C(=O)Nc2ccc(F)c(Cl)c2)=C2\C(=O)Nc3ccccc32)[nH]1`, over 100000 nM; for `CCN(CC)CCNC(=O)/C(=C1/C(=O)Nc2ccccc21)c1[nH]c(C)cc1C`, over 100000 nM.
The same measure, in the same setting: for `Cc1cc(C)c(/C(C(=O)Nc2ccccc2Cl)=C2\C(=O)Nc3ccccc32)[nH]1` the value was over 100000 nM; for `Cc1cc(C)c(/C(C(=O)Nc2cccc(F)c2)=C2\C(=O)Nc3ccccc32)[nH]1`, over 100000 nM.
Same read-out and setting: as for `Cc1cc(C)c(/C(C(=O)O)=C2\C(=O)Nc3ccccc32)[nH]1`, the figure is over 100000 nM.
Regarding `O=C(O)/C(=C1/C(=O)Nc2ccccc21)c1ccccc1`, the IC50 is over 100000 nM.

Another assay deals with EGFR (UniProt P00533).
Sequence of EGFR (P00533 whole entry, looked up): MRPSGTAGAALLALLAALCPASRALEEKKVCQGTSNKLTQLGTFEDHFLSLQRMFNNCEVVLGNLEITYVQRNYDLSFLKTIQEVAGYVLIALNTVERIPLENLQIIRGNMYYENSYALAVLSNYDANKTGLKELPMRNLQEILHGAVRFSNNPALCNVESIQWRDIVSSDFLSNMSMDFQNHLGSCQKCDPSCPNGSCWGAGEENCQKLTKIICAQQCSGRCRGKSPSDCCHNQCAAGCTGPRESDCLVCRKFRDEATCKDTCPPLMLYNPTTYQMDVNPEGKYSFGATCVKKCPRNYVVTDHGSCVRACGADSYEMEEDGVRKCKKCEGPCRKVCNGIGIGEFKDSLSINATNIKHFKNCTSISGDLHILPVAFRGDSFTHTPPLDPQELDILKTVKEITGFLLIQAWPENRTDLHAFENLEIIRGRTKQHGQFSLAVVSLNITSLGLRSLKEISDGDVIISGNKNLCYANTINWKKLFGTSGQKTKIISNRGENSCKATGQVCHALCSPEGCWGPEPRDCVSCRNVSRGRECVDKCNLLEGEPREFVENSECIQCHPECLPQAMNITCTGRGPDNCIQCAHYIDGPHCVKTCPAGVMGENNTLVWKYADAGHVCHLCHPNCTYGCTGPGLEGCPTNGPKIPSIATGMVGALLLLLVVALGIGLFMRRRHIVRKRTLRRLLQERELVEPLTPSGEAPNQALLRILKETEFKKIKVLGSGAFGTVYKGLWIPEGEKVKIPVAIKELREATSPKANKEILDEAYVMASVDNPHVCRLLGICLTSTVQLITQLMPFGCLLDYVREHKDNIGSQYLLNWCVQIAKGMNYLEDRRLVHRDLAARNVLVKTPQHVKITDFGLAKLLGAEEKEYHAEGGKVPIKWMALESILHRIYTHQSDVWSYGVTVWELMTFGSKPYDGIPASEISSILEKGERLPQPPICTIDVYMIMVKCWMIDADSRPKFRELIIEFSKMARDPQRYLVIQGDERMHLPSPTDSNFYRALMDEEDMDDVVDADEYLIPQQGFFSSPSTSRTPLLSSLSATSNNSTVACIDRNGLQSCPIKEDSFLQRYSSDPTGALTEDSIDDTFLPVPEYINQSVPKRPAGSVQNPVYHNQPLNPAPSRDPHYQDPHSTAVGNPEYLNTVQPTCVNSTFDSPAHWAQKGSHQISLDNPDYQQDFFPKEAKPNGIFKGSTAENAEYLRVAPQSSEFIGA
Test: not given
Details: not given
This is another data set of the same source.
`COc1cccc(Nc2ncnc3cccc(CN4CC[C@@H](N)[C@H](O)C4)c23)c1` came in with an IC50 of 1 to 5000 nM.
On to `NC1CCN(Cc2cccc3ncnc(Nc4ccc(OCc5cccc(F)c5)c(Cl)c4)c23)CC1`, for which the IC50 lay within 1 to 5000 nM.
The same measure, in the same setting: for `N[C@@H]1CCN(Cc2cccc3ncnc(Nc4cccc(Cl)c4)c23)C[C@H]1O` the value was 1 to 5000 nM; for `N[C@@H]1CCN(Cc2cccc3ncnc(Nc4ccc5c(cnn5Cc5cccc(F)c5)c4)c23)C[C@H]1O`, 1 to 5000 nM.
Still for that read-out and setting: as for `COc1cccc(Nc2ncnc3cccc(CN4CCC(N)CC4)c23)c1`, the figure is 1 to 5000 nM; as for `C#Cc1cccc(Nc2ncnc3cccc(CN4CC[C@@H](N)[C@H](O)C4)c23)c1`, 1 to 5000 nM; as for `C#Cc1cccc(Nc2ncnc3cccc(CN4CC[C@@H](N)[C@H](CO)C4)c23)c1`, 1 to 5000 nM.
Turning to `CNC(=O)[C@@H]1CN(Cc2cccc3ncnc(Nc4cccc(OC)c4)c23)CC[C@H]1N`, the IC50 lay within 1 to 5000 nM.

A further assay deals with EGFR (human) (UniProt P00533).
Sequence of EGFR (human) (P00533 whole entry, looked up): as above
Test: not given
Details: not given
The source holds these as a separate data set.
The molecule `N#Cc1ccc(NC(=O)c2sc3ncnc4c3c2NC(=O)N4c2ccc(F)c(Cl)c2)cn1` returned an IC50 of 116 nM.
Same read-out and setting: for `O=C(Nc1ccc(CN2CCOCC2)cc1)c1sc2ncnc3c2c1NC(=O)N3c1ccc(F)cc1Cl` the value was 23 nM; for `C[C@@H]1CN(Cc2ccc(NC(=O)c3sc4ncnc5c4c3NC(=O)N5c3ccc(Oc4ccccc4)cc3)cc2)C[C@H](C)O1`, 31 nM.
On the same count and under the same terms, for `O=C(O)c1sc2ncnc3c2c1NC(=O)N3c1ccc(F)c(Cl)c1` the value was 1700 nM.
Same read-out and setting: for `CC(C)(C)OC(=O)NCCCNC(=O)c1sc2ncnc3c2c1NC(=O)N3c1ccc2c(ccn2Cc2cccc(F)c2)c1` the value was 346 nM; for `CC(C)(C)OC(=O)N1CCC(Cc2ccc(NC(=O)c3sc4ncnc5c4c3NC(=O)N5c3ccc4c(ccn4Cc4cccc(F)c4)c3)cc2)CC1`, 168 nM.
`O=C(Nc1ccc(CNC[C@@H]2CCCO2)cc1)c1sc2ncnc3c2c1NC(=O)N3c1ccc(F)c(Cl)c1` had an IC50 of 44 nM.
The same measure, in the same setting: as for `O=C(Nc1ccc(CN2CCCCC2)cc1)c1sc2ncnc3c2c1NC(=O)N3c1ccc(Cc2ccccc2)cc1`, the figure is 110 nM.

The next assay addresses EGFR (human) (UniProt P00533).
Test: not given
Details: not given
This is another data set of the same source.
The molecule `O=[N+]([O-])c1cccc(Nc2ncnc3sc4c(c23)CCCC4)c1` had an IC50 of 2.59 nM.
Still for that read-out and setting: for `COc1cccc(Nc2ncnc3sc4c(c23)CCCC4)c1` the value was 34 nM.
Molecule `Oc1cccc(Nc2ncnc3sc4c(c23)CCCC4)c1` displayed an IC50 of 7.89 nM.
Still for that read-out and setting: as for `Clc1cccc(Nc2ncnc3sc4c(c23)CCCC4)c1`, the figure is 1.97 nM; as for `Oc1ccc(Nc2ncnc3sc4c(c23)CCCC4)cc1`, 27.4 nM; as for `Brc1ccc(Nc2ncnc3sc4c(c23)CCCC4)cc1`, 50.3 nM.
Still for that read-out and setting: for `c1ccc(Nc2ncnc3sc4c(c23)CCCC4)cc1` the value was 10.5 nM; for `FC(F)(F)c1cccc(Nc2ncnc3sc4c(c23)CCCC4)c1`, 35.5 nM.

For another assay, the target named is EGFR (human) (UniProt P00533).
Test: not given
The settings on record: a431.
`C=CC(=O)N1CCC[C@@H]1C(=O)Nc1ccc2ncnc(Nc3ccc(OCc4ccccn4)c(Cl)c3)c2c1`: the IC50 worked out at 567 nM.
On the same count and under the same terms, for `C=CC(=O)N1CCC[C@H](C(=O)Nc2ccc3ncnc(Nc4ccc(OCc5ccccn5)c(Cl)c4)c3c2)C1` the value was 286 nM; for `C=CC(=O)N1CC[C@H](C(=O)Nc2ccc3ncnc(Nc4ccc(OCc5ccccn5)c(Cl)c4)c3c2)C1`, 350 nM.
`C=CC(=O)N1CC(C(=O)Nc2ccc3ncnc(Nc4ccc(OCc5ccccn5)c(Cl)c4)c3c2)C1` displayed an IC50 of 1400 nM.
In turn, `C=CC(=O)N1CCC(C(=O)Nc2ccc3ncnc(Nc4ccc(OCc5ccccn5)c(Cl)c4)c3c2)CC1` displayed an IC50 of 513 nM.
On the same count and under the same terms, as for `C=CC(=O)N1CCC[C@H]1C(=O)Nc1ccc2ncnc(Nc3ccc(OCc4ccccn4)c(Cl)c3)c2c1`, the figure is 32 nM; as for `C=CC(=O)N1CCCC[C@H]1C(=O)Nc1ccc2ncnc(Nc3ccc(OCc4ccccn4)c(Cl)c3)c2c1`, 105 nM; as for `C=CC(=O)N1CC[C@H]1C(=O)Nc1ccc2ncnc(Nc3ccc(OCc4ccccn4)c(Cl)c3)c2c1`, 218 nM.

In another assay the target is EGFR (human) (UniProt P00533).
Test: not given
Details: not given
This is another data set of the same source.
In turn, `CCNc1nc(-c2cccc(OC)c2)c(-c2ccnc(Nc3ccc(OC4CCN(CCS(C)(=O)=O)CC4)c(F)c3)n2)s1` yielded a 50% inhibitory concentration (IC50) of 100 to 1000 nM.
For the molecule `Fc1cc(Nc2nccc(-c3sc(N4CCCC4)nc3-c3cccc(Cl)c3)n2)ccc1OCCN1CCCC1`, the IC50 is 100 to 1000 nM.
On the same count and under the same terms, as for `COCCNc1nc(-c2cccc(OC)c2)c(-c2ccnc(Nc3ccc(N4CCOCC4)c(Cl)c3)n2)s1`, the figure is under 100 nM; as for `COc1cc(-c2nc(N3CCCC3)sc2-c2ccnc(Nc3ccc(OCCN4CCCC4)c(F)c3)n2)ccc1Cl`, 100 to 1000 nM; as for `CCNc1nc(-c2cccc(Cl)c2)c(-c2ccnc(Nc3ccc(OCCN(C)C)c(Cl)c3)n2)s1`, under 100 nM.
For `CCNc1nc(-c2cccc(O)c2)c(-c2ccnc(Nc3ccc(OCCN4CCCC4)c(Cl)c3)n2)s1`, the IC50 was under 100 nM.
Same read-out and setting: as for `CCNc1nc(-c2cccc(OC)c2)c(-c2ccnc(Nc3ccc(OCCN(C)C)c(C)c3)n2)s1`, the figure is under 100 nM; as for `CCNc1nc(-c2cccc(OC)c2)c(-c2ccnc(Nc3ccc(OCCN4CCCC4)c(F)c3)n2)s1`, under 100 nM.

The record behind these values is the Kinase Knowledgebase extract (Sharma et al. 2016).
